Read-outs that look alike come from different tables or passages of the source.
Assays:
rodent 9L glioma = assay: Inhibition of tumor proliferation, 9L cells counted after 5 days; format: cell-based; details: 120 h, read-out: growth inhibition
Procedure: The 9L gliosarcoma cell line was obtained from Dr. M. Barker at the University of California at San Francisco Brain Tumor Research Center (San Francisco, Calif., USA). The cells were maintained in tissue culture in Dulbecco's minimum essential medium with 10% fetal bovine serum, streptomycin (80.5 units/ml), penicillin (base; 80.5 units/ml), and 1% L-glutamine (all products from GIBCO laboratories, Grand Island, N.Y., USA). Cells were maintained in a humidified atmosphere of 5% CO2 at 37° C. The cells were grown to confluence, detached with 0.25% trypsin in Dulbecco's phosphate-buffered saline, and resuspended in medium.
Inhibition of tumor proliferation was tested against the rodent 9L glioma. […] The data were analyzed using the two-tailed Student's t-test.

9L gliosarcoma = system: 9L gliosarcoma
Source text: 88 rats were intracranially implanted on Day 0 with 9L gliosarcoma.

## CO[C@H]1C[C@@H]2CC[C@@H](C)[C@@](O)(O2)C(=O)C(=O)N2CCCC[C@H]2C(=O)O[C@H]([C@H](C)C[C@@H]2CC[C@@H](O)[C@H](OC)C2)CC(=O)[C@H](C)/C=C(\C)[C@@H](O)[C@@H](OC)C(=O)[C@H](C)C[C@H](C)/C=C/C=C/C=C/1C [Rapamycin, rapamycin]
Rodent 9L glioma; 0.01 microgram/ml
  inhibition at 0.01 µg/mL: 34%
Rodent 9L glioma; 10 microgram/ml
  inhibition at 10 µg/mL: 62%
9L gliosarcoma; rat, in vivo, ip, 2 mg/kg
  toxicity: none of the rats that received systemic injections of rapamycin showed overt signs of toxicity
9L gliosarcoma; treated Day 0, at Day 0
  % Survival: 100%
9L gliosarcoma; treated Day 0, at Day 12, 1st line
  % Survival: 100%
9L gliosarcoma; treated Day 0, at Day 12, 2nd line
  % Survival: 100%
9L gliosarcoma; treated Day 0, at Day 13, 1st line
  % Survival: 100%
9L gliosarcoma; treated Day 0, at Day 13, 2nd line
  % Survival: 100%
9L gliosarcoma; treated Day 0, at Day 14, 1st line
  % Survival: 100%
9L gliosarcoma; treated Day 0, at Day 14, 2nd line
  % Survival: 100%
9L gliosarcoma; treated Day 0, at Day 15, 1st line
  % Survival: 100%
9L gliosarcoma; treated Day 0, at Day 15, 2nd line
  % Survival: 100%
9L gliosarcoma; treated Day 0, at Day 16, 1st line
  % Survival: 100%
9L gliosarcoma; treated Day 0, at Day 16, 2nd line
  % Survival: 100%
9L gliosarcoma; treated Day 0, at Day 17, 1st line
  % Survival: 100%
9L gliosarcoma; treated Day 0, at Day 17, 2nd line
  % Survival: 100%
9L gliosarcoma; treated Day 0, at Day 18, 1st line
  % Survival: 100%
9L gliosarcoma; treated Day 0, at Day 18, 2nd line
  % Survival: 100%
9L gliosarcoma; treated Day 0, at Day 19, 1st line
  % Survival: 100%
9L gliosarcoma; treated Day 0, at Day 19, 2nd line
  % Survival: 100%
9L gliosarcoma; treated Day 0, at Day 20, 1st line
  % Survival: 100%
9L gliosarcoma; treated Day 0, at Day 20, 2nd line
  % Survival: 100%
9L gliosarcoma; treated Day 0, at Day 21, 1st line
  % Survival: 100%
9L gliosarcoma; treated Day 0, at Day 21, 2nd line
  % Survival: 100%
9L gliosarcoma; treated Day 0, at Day 22, 1st line
  % Survival: 100%
9L gliosarcoma; treated Day 0, at Day 22, 2nd line
  % Survival: 100%
9L gliosarcoma; treated Day 0, at Day 23, 1st line
  % Survival: 100%
9L gliosarcoma; treated Day 0, at Day 23, 2nd line
  % Survival: 100%
9L gliosarcoma; treated Day 0, at Day 24, 1st line
  % Survival: 100%
9L gliosarcoma; treated Day 0, at Day 24, 2nd line
  % Survival: 100%
9L gliosarcoma; treated Day 0, at Day 25, 1st line
  % Survival: 100%
9L gliosarcoma; treated Day 0, at Day 25, 2nd line
  % Survival: 75%
9L gliosarcoma; treated Day 0, at Day 26, 1st line
  % Survival: 75%
9L gliosarcoma; treated Day 0, at Day 26, 2nd line
  % Survival: 75%
9L gliosarcoma; treated Day 0, at Day 27, 1st line
  % Survival: 75%
9L gliosarcoma; treated Day 0, at Day 27, 2nd line
  % Survival: 75%
9L gliosarcoma; treated Day 0, at Day 28, 1st line
  % Survival: 75%
9L gliosarcoma; treated Day 0, at Day 28, 2nd line
  % Survival: 50%
9L gliosarcoma; treated Day 0, at Day 29, 1st line
  % Survival: 50%
9L gliosarcoma; treated Day 0, at Day 29, 2nd line
  % Survival: 50%
9L gliosarcoma; treated Day 0, at Day 30, 1st line
  % Survival: 50%
9L gliosarcoma; treated Day 0, at Day 30, 2nd line
  % Survival: 37.5%
9L gliosarcoma; treated Day 0, at Day 31, 1st line
  % Survival: 37.5%
9L gliosarcoma; treated Day 0, at Day 31, 2nd line
  % Survival: 37.5%
9L gliosarcoma; treated Day 0, at Day 32, 1st line
  % Survival: 37.5%
9L gliosarcoma; treated Day 0, at Day 32, 2nd line
  % Survival: 37.5%
9L gliosarcoma; treated Day 0, at Day 33, 1st line
  % Survival: 37.5%
9L gliosarcoma; treated Day 0, at Day 33, 2nd line
  % Survival: 37.5%
9L gliosarcoma; treated Day 0, at Day 35, 1st line
  % Survival: 37.5%
9L gliosarcoma; treated Day 0, at Day 35, 2nd line
  % Survival: 25%
9L gliosarcoma; treated Day 0, at Day 40, 1st line
  % Survival: 25%
9L gliosarcoma; treated Day 0, at Day 41, 2nd line
  % Survival: 0%
9L gliosarcoma; treated Day 5, at Day 0
  % Survival: 100%
9L gliosarcoma; treated Day 5, at Day 12, 1st line
  % Survival: 100%
9L gliosarcoma; treated Day 5, at Day 12, 2nd line
  % Survival: 100%
9L gliosarcoma; treated Day 5, at Day 13, 1st line
  % Survival: 100%
9L gliosarcoma; treated Day 5, at Day 13, 2nd line
  % Survival: 100%
9L gliosarcoma; treated Day 5, at Day 14, 1st line
  % Survival: 100%
9L gliosarcoma; treated Day 5, at Day 14, 2nd line
  % Survival: 100%
9L gliosarcoma; treated Day 5, at Day 15, 1st line
  % Survival: 100%
9L gliosarcoma; treated Day 5, at Day 15, 2nd line
  % Survival: 100%
9L gliosarcoma; treated Day 5, at Day 16, 1st line
  % Survival: 100%
9L gliosarcoma; treated Day 5, at Day 16, 2nd line
  % Survival: 100%
9L gliosarcoma; treated Day 5, at Day 17, 1st line
  % Survival: 100%
9L gliosarcoma; treated Day 5, at Day 17, 2nd line
  % Survival: 100%
9L gliosarcoma; treated Day 5, at Day 18, 1st line
  % Survival: 100%
9L gliosarcoma; treated Day 5, at Day 18, 2nd line
  % Survival: 100%
9L gliosarcoma; treated Day 5, at Day 19, 1st line
  % Survival: 100%
9L gliosarcoma; treated Day 5, at Day 19, 2nd line
  % Survival: 100%
9L gliosarcoma; treated Day 5, at Day 20, 1st line
  % Survival: 100%
9L gliosarcoma; treated Day 5, at Day 20, 2nd line
  % Survival: 100%
9L gliosarcoma; treated Day 5, at Day 21, 1st line
  % Survival: 100%
9L gliosarcoma; treated Day 5, at Day 21, 2nd line
  % Survival: 100%
9L gliosarcoma; treated Day 5, at Day 22, 1st line
  % Survival: 100%
9L gliosarcoma; treated Day 5, at Day 22, 2nd line
  % Survival: 100%
9L gliosarcoma; treated Day 5, at Day 23, 1st line
  % Survival: 100%
9L gliosarcoma; treated Day 5, at Day 23, 2nd line
  % Survival: 100%
9L gliosarcoma; treated Day 5, at Day 24, 1st line
  % Survival: 100%
9L gliosarcoma; treated Day 5, at Day 24, 2nd line
  % Survival: 100%
9L gliosarcoma; treated Day 5, at Day 25, 1st line
  % Survival: 100%
9L gliosarcoma; treated Day 5, at Day 26, 2nd line
  % Survival: 75%
9L gliosarcoma; treated Day 5, at Day 27, 1st line
  % Survival: 75%
9L gliosarcoma; treated Day 5, at Day 27, 2nd line
  % Survival: 62.5%
9L gliosarcoma; treated Day 5, at Day 28, 1st line
  % Survival: 62.5%
9L gliosarcoma; treated Day 5, at Day 28, 2nd line
  % Survival: 50%
9L gliosarcoma; treated Day 5, at Day 29, 1st line
  % Survival: 50%
9L gliosarcoma; treated Day 5, at Day 29, 2nd line
  % Survival: 50%
9L gliosarcoma; treated Day 5, at Day 30, 1st line
  % Survival: 50%
9L gliosarcoma; treated Day 5, at Day 30, 2nd line
  % Survival: 50%
9L gliosarcoma; treated Day 5, at Day 31, 1st line
  % Survival: 50%
9L gliosarcoma; treated Day 5, at Day 31, 2nd line
  % Survival: 50%
9L gliosarcoma; treated Day 5, at Day 32, 1st line
  % Survival: 50%
9L gliosarcoma; treated Day 5, at Day 32, 2nd line
  % Survival: 37.5%
9L gliosarcoma; treated Day 5, at Day 33, 1st line
  % Survival: 37.5%
9L gliosarcoma; treated Day 5, at Day 33, 2nd line
  % Survival: 37.5%
9L gliosarcoma; treated Day 5, at Day 35, 1st line
  % Survival: 37.5%
9L gliosarcoma; treated Day 5, at Day 35, 2nd line
  % Survival: 37.5%
9L gliosarcoma; treated Day 5, at Day 40, 1st line
  % Survival: 37.5%
9L gliosarcoma; treated Day 5, at Day 40, 2nd line
  % Survival: 37.5%
9L gliosarcoma; treated Day 5, at Day 41, 1st line
  % Survival: 37.5%
9L gliosarcoma; treated Day 5, at Day 41, 2nd line
  % Survival: 0%
9L gliosarcoma; treatment Day 0
  Statistical Significance (survival) vs Day 0-0.2%: 0.4226
  Statistical Significance (survival) vs Day 0-2.2%: 0.2237
  Statistical Significance (survival) vs Day 0-28%: 0.7869
  Statistical Significance (survival) vs Day 0-Placebo: 0.0001
  Statistical Significance (survival) vs Day 5-0.2%: 0.0002
  Statistical Significance (survival) vs Day 5-2.2%: 0.0008
  Statistical Significance (survival) vs Day 5-Placebo: 0.0001
  Statistical Significance (survival) vs Day 5-Systemic: 0.5157
9L gliosarcoma; treatment Day 5
  Statistical Significance (survival) vs Day 0-0.2%: 0.2137
  Statistical Significance (survival) vs Day 0-28%: 0.9992
  Statistical Significance (survival) vs Day 0-Placebo: 0.0001
  Statistical Significance (survival) vs Day 0-Systemic: 0.5157
  Statistical Significance (survival) vs Day 5-0.2%: 0.0001
  Statistical Significance (survival) vs Day 5-2.2%: 0.003
  Statistical Significance (survival) vs Day 5-28%: 0.222
  Statistical Significance (survival) vs Day 5-Placebo: 0.0001
9L gliosarcoma; treatment initiated 5 days after tumor implantation
  Mean Survival: 29 days
9L gliosarcoma; treatment initiated concurrently with tumor implantation (Day 0)
  Mean Survival: 28 days
